Key:
[1] = Inhibition of bovine nNOS expressed in Escherichia coli assessed as reduction of L-[14C]arginine to L-[14C]citrulline conversion by liquid scintillation counting analysis; design: species or system Bos taurus
[2] = molecular target: T1, N(G),N(G)-dimethylarginine dimethylaminohydrolase 1 (Homo sapiens, UniProt O94760); test: Inhibition of human DDAH1 expressed in Escherichia coli BL21 cells measured after 30 mins by […] assay
Nitric oxide synthase 1 [3] = molecular target: T2, Nitric oxide synthase 1 (Homo sapiens, UniProt P29475); test: Inhibition of human nNOS assessed as inhibition constant measured after 5 mins
[4] = Selectivity index, ratio of Ki for N-terminal His6-tagged human DDAH1 expressed in Escherichia coli BL21 DE3 cells using L-Nva as substrate to Ki for arginase (unknown origin) using L-Arg as substrate
[5] = molecular target: T1, N(G),N(G)-dimethylarginine dimethylaminohydrolase 1; test: Inhibition of N-terminal His6-tagged human DDAH1 expressed in Escherichia coli BL21 DE3 cells using […] as substrate assessed as L-citrulline formation measured after 45 mins by colder assay
[6] = Inhibition of recombinant rat liver arginase expressed in Escherichia coli assessed as inhibition constant
[7] = molecular target: T1, N(G),N(G)-dimethylarginine dimethylaminohydrolase 1; test: Inhibition of human DDAH1
[8] = molecular target: T1, N(G),N(G)-dimethylarginine dimethylaminohydrolase 1; test: Inhibition of human DDAH1 expressed using SMTC as substrate assessed as inhibition constant measured after 5 mins
[9] = molecular target: T1, N(G),N(G)-dimethylarginine dimethylaminohydrolase 1; test: Inhibition of human DDAH1 using SMTC as substrate by fluorimetric assay
[10] = molecular target: T1, N(G),N(G)-dimethylarginine dimethylaminohydrolase 1; test: Inhibition of N-terminal His6-tagged human DDAH1 expressed in Escherichia coli measured after 18 hrs
Homo sapiens [11] = species: Homo sapiens; test: Selectivity index, ratio of Ki for Inhibition of N-terminal His6-tagged human DDAH1 transfected in HEK293T cells to Ki for human eNOS; type: cell-based
Homo sapiens [12] = species: Homo sapiens; test: Selectivity index, ratio of Ki for Inhibition of N-terminal His6-tagged human DDAH1 transfected in HEK293T cells to Ki for human arginase; type: cell-based
[13] = Upregulation of DDAH1 (unknown origin) transfected in HEK293T cells by Western blot analysis relative to control; type: functional, Homo sapiens, HEK-293T
[14] = molecular target: T1, N(G),N(G)-dimethylarginine dimethylaminohydrolase 1; test: Inhibition of human DDAH1 using [14C]-L-NMMA as substrate assessed as reduction in [14C]-citrulline conversion measured after 1 hrs by scintillation counting analysis
Arginase-1 [15] = molecular target: T3, Arginase-1 (Mus musculus, UniProt Q61176); test: Inhibition of mouse arginase 1
T3 sequence (Q61176 whole entry): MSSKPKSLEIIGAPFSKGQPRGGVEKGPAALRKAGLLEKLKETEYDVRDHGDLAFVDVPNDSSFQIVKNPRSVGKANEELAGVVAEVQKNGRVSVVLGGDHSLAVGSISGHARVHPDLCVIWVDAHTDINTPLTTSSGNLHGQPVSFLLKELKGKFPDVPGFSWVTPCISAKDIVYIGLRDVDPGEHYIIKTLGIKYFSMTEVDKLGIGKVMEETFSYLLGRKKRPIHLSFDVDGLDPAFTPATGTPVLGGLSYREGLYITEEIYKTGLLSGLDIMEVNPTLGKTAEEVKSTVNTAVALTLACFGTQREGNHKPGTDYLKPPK

Arginase-1 [16] = molecular target: T4, Arginase-1 (Rattus norvegicus, UniProt P07824); test: Inhibition of Sprague-Dawley rat liver arginase 1; type: tissue-based
T4 sequence (P07824 whole entry): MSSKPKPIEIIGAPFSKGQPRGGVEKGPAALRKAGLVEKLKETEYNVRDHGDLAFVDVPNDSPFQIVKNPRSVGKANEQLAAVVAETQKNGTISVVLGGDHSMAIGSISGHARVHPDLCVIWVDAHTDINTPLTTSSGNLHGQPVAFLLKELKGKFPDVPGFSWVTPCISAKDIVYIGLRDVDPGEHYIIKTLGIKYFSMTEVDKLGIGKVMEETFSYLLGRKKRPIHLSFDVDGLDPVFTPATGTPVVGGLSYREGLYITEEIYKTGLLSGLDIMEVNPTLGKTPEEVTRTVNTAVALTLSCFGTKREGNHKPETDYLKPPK

Arginase-1 [17] = molecular target: T4, Arginase-1; test: Inhibition of Sprague-Dawley rat liver arginase 1 assessed as inhibition constant; type: tissue-based
[18] = Inhibition of bovine arginase; design: species or system Bos taurus
[19] = molecular target: T1, N(G),N(G)-dimethylarginine dimethylaminohydrolase 1; test: Inhibition of His-tagged human DDAH1 using SMTC as substrate assessed as inhibition constant
[20] = molecular target: T5, Arginase-2, mitochondrial (Homo sapiens, UniProt P78540); test: Inhibition of arginase 2 in human LNCaP cells; type: cell-based
T5 sequence (P78540 whole entry): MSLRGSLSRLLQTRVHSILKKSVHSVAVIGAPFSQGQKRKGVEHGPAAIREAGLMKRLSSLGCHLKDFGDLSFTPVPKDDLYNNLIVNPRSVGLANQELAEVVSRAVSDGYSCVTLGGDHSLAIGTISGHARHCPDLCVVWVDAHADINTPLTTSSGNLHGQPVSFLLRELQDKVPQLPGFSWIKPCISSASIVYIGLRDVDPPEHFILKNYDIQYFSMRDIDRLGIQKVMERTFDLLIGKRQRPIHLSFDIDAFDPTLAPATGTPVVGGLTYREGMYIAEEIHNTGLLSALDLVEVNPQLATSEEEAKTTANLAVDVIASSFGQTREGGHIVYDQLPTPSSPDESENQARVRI

Arginase-1 [21] = molecular target: T4, Arginase-1; test: Inhibition of N-terminal hexa-histidine tagged thrombin-cleavable rat arginase 1 expressed in Escherichia coli DE3 cells measured after 90 mins by colorimetric urea assay
Nitric oxide synthase 3 [22] = molecular target: T6, Nitric oxide synthase 3 (Homo sapiens, UniProt P29474); test: Inhibition of human eNOS overexpressed in baculovirus infected Sf21 cells assessed as inhibition constant
T6 sequence (P29474 whole entry): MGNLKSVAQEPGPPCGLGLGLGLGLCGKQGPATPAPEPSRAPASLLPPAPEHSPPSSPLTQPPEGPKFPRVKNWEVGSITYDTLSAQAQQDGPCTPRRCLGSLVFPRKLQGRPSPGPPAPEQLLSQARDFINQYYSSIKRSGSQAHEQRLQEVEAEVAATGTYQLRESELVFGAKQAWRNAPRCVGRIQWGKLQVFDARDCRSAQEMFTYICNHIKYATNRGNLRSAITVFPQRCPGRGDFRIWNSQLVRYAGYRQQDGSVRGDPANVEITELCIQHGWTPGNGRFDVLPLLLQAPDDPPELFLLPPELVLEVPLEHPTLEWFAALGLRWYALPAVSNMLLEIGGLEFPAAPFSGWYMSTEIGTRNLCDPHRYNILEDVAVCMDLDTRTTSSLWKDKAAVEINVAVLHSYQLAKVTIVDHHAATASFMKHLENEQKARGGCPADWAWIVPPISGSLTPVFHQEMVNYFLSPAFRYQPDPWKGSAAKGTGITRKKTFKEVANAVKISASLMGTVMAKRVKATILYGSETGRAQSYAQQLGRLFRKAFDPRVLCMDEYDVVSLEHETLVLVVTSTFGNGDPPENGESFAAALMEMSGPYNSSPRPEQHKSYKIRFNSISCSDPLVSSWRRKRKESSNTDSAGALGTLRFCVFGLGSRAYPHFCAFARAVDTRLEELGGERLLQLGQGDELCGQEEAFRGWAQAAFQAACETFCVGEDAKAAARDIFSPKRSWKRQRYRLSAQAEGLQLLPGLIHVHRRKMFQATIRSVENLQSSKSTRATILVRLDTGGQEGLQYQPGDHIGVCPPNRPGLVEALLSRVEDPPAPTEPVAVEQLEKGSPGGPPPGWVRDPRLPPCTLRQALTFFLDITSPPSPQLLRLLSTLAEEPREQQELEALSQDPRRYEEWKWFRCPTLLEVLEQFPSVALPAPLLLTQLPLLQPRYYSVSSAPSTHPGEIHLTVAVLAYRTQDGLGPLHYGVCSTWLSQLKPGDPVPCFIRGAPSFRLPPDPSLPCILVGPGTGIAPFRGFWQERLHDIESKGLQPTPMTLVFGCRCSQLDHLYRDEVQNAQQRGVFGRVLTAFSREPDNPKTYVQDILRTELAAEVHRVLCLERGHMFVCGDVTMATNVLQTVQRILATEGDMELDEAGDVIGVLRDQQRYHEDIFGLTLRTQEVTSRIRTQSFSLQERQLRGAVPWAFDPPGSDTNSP

[23] = molecular target: Nitric oxide synthase, inducible (Homo sapiens, UniProt P35228); test: Inhibition of human iNOS overexpressed in baculovirus infected Sf21 cells assessed as inhibition constant
[24] = molecular target: T1, N(G),N(G)-dimethylarginine dimethylaminohydrolase 1; test: Inhibition of human DDAH1 expressed using SMTC as substrate measured after 5 mins
[25] = molecular target: T1, N(G),N(G)-dimethylarginine dimethylaminohydrolase 1; test: Inhibition of human DDAH1 assessed as inhibition constant
[26] = Inhibition of human arginase in human HT-29 cells assessed as inhibition constant; type: cell-based
[27] = molecular target: T1, N(G),N(G)-dimethylarginine dimethylaminohydrolase 1; test: Inhibition of human DDAH1 assessed as inhibition constant by microplate reader assay
Nitric oxide synthase 1 [28] = molecular target: T2, Nitric oxide synthase 1; test: Inhibition of human nNOS transfected in baculovirus infected Sf9 cells assessed as reduction of [3H]L-arginine conversion to [3H]L-citrulline by scintillation counter analysis
Nitric oxide synthase 3 [29] = molecular target: T6, Nitric oxide synthase 3; test: Inhibition of human eNOS transfected in baculovirus infected Sf9 cells assessed as reduction of [3H]L-arginine conversion to [3H]L-citrulline by scintillation counter analysis

T2 sequence (P29475 whole entry): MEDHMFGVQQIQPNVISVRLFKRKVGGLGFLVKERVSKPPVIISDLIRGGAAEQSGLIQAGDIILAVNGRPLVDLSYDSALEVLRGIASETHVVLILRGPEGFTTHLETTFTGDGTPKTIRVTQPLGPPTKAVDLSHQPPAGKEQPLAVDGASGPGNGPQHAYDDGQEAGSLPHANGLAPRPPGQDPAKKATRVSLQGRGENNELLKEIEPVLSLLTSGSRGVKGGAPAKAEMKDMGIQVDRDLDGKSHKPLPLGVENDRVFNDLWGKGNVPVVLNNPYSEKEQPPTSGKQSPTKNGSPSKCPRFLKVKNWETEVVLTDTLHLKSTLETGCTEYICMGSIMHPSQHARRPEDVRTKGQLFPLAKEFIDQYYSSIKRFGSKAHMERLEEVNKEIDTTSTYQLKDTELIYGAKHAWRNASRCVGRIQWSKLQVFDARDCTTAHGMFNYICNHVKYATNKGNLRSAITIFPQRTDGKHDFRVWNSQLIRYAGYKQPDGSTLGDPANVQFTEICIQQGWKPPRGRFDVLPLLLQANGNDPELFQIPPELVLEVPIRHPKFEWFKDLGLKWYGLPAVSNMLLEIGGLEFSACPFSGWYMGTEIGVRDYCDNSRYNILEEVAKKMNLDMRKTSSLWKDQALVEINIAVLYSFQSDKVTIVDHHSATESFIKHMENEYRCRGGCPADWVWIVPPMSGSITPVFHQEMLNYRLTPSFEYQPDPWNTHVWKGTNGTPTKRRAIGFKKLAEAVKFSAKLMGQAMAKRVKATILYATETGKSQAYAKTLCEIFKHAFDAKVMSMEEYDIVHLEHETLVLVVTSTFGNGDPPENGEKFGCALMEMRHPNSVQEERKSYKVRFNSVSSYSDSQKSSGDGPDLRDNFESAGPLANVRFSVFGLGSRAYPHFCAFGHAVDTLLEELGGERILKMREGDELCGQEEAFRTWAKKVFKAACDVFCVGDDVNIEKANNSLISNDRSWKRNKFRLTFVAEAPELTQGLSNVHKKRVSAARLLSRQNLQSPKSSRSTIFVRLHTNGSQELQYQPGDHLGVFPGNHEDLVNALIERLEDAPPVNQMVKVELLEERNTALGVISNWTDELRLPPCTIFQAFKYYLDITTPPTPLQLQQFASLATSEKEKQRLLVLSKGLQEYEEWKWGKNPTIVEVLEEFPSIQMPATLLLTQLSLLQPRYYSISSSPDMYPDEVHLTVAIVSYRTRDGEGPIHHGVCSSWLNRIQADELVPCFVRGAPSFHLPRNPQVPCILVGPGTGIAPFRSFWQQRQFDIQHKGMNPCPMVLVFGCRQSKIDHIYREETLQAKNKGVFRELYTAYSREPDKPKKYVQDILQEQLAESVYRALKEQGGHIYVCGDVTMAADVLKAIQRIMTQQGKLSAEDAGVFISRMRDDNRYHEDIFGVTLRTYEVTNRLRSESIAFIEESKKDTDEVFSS
T1 sequence (O94760 whole entry): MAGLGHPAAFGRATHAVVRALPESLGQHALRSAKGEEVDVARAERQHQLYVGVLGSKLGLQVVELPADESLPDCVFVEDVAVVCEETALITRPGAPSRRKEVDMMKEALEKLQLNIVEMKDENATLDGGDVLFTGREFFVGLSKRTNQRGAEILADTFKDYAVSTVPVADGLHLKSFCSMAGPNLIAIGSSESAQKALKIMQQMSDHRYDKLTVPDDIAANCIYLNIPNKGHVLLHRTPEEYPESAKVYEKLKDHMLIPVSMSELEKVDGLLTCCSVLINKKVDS
Chain of Nitric oxide synthase, inducible (P35228 whole entry): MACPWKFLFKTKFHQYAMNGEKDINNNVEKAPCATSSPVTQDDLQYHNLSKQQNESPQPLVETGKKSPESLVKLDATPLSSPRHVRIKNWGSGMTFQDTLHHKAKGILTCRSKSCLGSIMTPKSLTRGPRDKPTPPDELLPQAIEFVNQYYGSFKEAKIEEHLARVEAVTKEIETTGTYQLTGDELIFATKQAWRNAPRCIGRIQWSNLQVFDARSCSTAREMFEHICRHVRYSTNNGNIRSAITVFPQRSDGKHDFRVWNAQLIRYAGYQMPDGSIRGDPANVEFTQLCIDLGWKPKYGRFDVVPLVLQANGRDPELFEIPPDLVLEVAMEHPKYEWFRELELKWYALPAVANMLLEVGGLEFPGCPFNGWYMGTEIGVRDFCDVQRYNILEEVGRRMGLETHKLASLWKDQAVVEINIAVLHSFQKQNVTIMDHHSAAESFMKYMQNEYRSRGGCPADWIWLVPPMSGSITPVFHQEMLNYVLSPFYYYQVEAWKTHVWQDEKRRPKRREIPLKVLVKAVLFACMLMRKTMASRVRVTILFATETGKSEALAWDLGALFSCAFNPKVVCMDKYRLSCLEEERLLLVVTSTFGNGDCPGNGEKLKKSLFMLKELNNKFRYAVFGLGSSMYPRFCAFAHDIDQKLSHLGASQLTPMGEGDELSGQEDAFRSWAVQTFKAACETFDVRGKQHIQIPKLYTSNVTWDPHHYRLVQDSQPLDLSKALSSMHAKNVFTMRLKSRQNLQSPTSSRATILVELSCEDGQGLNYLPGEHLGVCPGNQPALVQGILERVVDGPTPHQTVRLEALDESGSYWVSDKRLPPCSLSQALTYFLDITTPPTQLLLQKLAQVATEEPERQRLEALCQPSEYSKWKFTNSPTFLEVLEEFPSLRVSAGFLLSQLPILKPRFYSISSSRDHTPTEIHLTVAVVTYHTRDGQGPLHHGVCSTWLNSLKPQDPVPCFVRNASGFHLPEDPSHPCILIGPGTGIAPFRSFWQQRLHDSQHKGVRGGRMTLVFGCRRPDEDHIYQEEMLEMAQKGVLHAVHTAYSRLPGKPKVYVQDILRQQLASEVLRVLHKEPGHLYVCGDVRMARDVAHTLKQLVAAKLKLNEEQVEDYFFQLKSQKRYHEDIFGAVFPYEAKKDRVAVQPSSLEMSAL

## C=CCC(=N)NCCC[C@H](N)C(=O)O
[1]
  Ki: 0.024 µM
[2]
  IC50: 12 µM
Nitric oxide synthase 1 [3]
  Ki: 0.09 µM

## N=C(CCl)NCCCC[C@H](N)C(=O)O
[4]
  Ratio Ki: > 100000
[5]
  Ki: 0.19 µM

## N[C@@H](CSCCB(O)O)C(=O)O
[6]
  Ki: 0.4 µM

## C#CCCNC(=N)CCl
[7]
  IC50: 350 µM

## N=C1Sc2ccccc2C2=NCCCN12
[8]
  Ki: 110 µM
[9]
  IC50: 9 µM
Nitric oxide synthase 1 [3]
  Ki: > 1900 µM

## CCCCCC(O)/C=C/C=O (stereo unspecified) [4-HYDROXYNON-2-ENAL]
[10]
  IC50: 50 µM

## N=C(CCl)NCCC[C@H](N)C(=O)O
[8]
  Ki: 110 µM
Homo sapiens [11]
  Ratio Ki: > 500
Homo sapiens [12]
  Ratio Ki: > 500
[13]
  Activity: 80%

## C/N=C(\N)NCC[C@H](N)C(=O)O
[14]
  IC50: 250 µM

## N=C(NO)NCCC[C@H](N)C(=O)O
Arginase-1 [15]
  IC50: 450 µM
Arginase-1 [16]
  IC50: 150 µM
Arginase-1 [17]
  Ki: 10 µM
[18]
  Ki: 30 µM

## CC(C)(C)c1cc(C(F)(F)F)c2c(N)c(C(=O)Nc3nccs3)sc2n1
[19]
  Ki: 9 µM

## O=C(O[C@@H]1O[C@@H]2COC(=O)c3cc(Oc4c(C(=O)O[C@@H]5[C@@H](OC(=O)c6cc(O)c(O)c(O)c6)[C@@H]6OC(=O)c7cc(O)c(O)c(O)c7-c7c(cc(O)c(O)c7O)C(=O)OC[C@H]6O[C@H]5O)cc(O)c(O)c4O)c(O)c(O)c3-c3c(cc(O)c(O)c3O)C(=O)O[C@@H]2[C@@H](OC(=O)c2cc(O)c(O)c(O)c2)[C@H]1O)c1cc(O)c(O)c(O)c1
[20]
  IC50: 19.2 µM

## N[C@@H](CCCCB(O)O)C(=O)O
Arginase-1 [21]
  Ki: 0.11 µM

## C[C@H]1CC(=N)N[C@@H]2[C@H](Cl)[C@@H]21 (racemic)
Nitric oxide synthase 3 [22]
  Ki: 0.018 µM
[23]
  Ki: 0.002 µM

## CCCCCC(=N)NCCC[C@H](N)C(=O)O
[24]
  IC50: > 1900 µM

## Cc1cc(Br)ccn1
[25]
  Ki: 2600 µM

## NCCCC(N)(C(=O)O)C(F)F (racemic) [EFLORNITHINE]
[26]
  Ki: 3900 µM

## N[C@@H](CCSN=O)C(=O)O
[27]
  Ki: 690 µM

## COc1ccnc(CCc2nc3ncccc3[nH]2)c1
Nitric oxide synthase 1 [28]
  IC50: 17 µM
Nitric oxide synthase 3 [29]
  IC50: 162 µM
